Drawing on patent publication US20230381321A1, “CAMPTOTHECIN CONJUGATES” (priority 2022, published 2023), this text covers IC50 for 14 compounds.

Common to all, as to assay type: cell-based
Experiment [1] has as its system renal carcinoma cells (786-O). The experiment is described as follows: In vitro potency (CellTiter-Glo, 96 h) on 786-O. The note with it: Homo sapiens, 786-0, 96 h, read-out: 786-O IC50. Here is the method:
(§1) In vitro potency was assessed on multiple cancer cell lines. All cell lines were authenticated by STR profiling at IDEXX Bioresearch and cultured for no more than 2 months after resuscitation. Cells cultured in log-phase growth were seeded for 24 hours in 96-well plates containing […] RPMI 1640 supplemented with 20% FBS. Serial dilutions of antibody-drug conjugates in cell culture media were prepared at 4x working concentrations, and 50 μL of each dilution was added to the 96-well plates. Following addition of test articles, cells were incubated with test articles for 4 days at […]. After 96 hours, growth inhibition was assessed by CellTiterGlo® (Promega, Madison, WI) and luminescence was measured on a plate reader.
(§2) Cell viability was determined by CellTiter-Glo staining after 96h exposure to ADC. ND=Not Determined. In the following tables, “Ex_” refers to a drug linker number. For example, “Ag4-Ex_4a” refers to a conjugate of an Ag4 antibody with drug linker 4a.

The subject of experiment [2] is anaplastic large cell lymphoma cells (DEL). In words: In vitro potency (CellTiter-Glo, 96 h) on DEL. The note with it: 96 h, read-out: DEL IC50. As to the method: as §1, §2
For experiment [3], the system named is anaplastic large cell lymphoma cells (Karpas299). In words: In vitro potency (CellTiter-Glo, 96 h) on Karpas299. The conditions noted are these: Homo sapiens, KARPAS-299, 96 h, read-out: Karpas299 IC50. As to the method: as §1, §2
The test system of experiment [4] is acute myeloid leukemia cells (MOLM-13). In words: In vitro potency (CellTiter-Glo, 96 h) on MOLM-13. The note with it: Homo sapiens, MOLM-13, 96 h, read-out: MOLM-13 IC50. As to the method:
as §1, §2

Experiment [5] deals with Hodgkin's lymphoma cells (L540cy). In words: In vitro potency (CellTiter-Glo, 96 h) on L540cy. The conditions noted are these: L540cy, 96 h, read-out: L540cy IC50. Here is the method:
as §1, §2

Experiment [6] has as its system B-lymphocyte cancer cells (SU-DHL4). In words: In vitro potency (CellTiter-Glo, 96 h) on SU-DHL4. The conditions noted are these: Homo sapiens, SU-DHL-4, 96 h, read-out: SU-DHL-4 IC50. Here is the method: as §1, §2
For experiment [7], the system named is pancreatic cancer cells (BxPC3). The experiment is described as follows: In vitro potency (CellTiter-Glo, 96 h) on BxPC3. The conditions noted are these: Homo sapiens, BXPC-3, 96 h, read-out: BxPC3 IC50. As to the method:
as §1, §2

Experiment [8] in a line: In vitro potency (CellTiter-Glo, 96 h) on Ls174T. The conditions noted are these: Homo sapiens, LS174T, read-out: Ls174T IC50. As to the method: as §1, §2
Experiment [9] has as its system breast cancer cells (MDA-MB-231). In words: In vitro potency (CellTiter-Glo, 96 h) on MDA-MB-231. The conditions noted are these: Homo sapiens, MDA-MB-231, 96 h, read-out: MDAMB 231 IC50. Here is the method: as §1, §2
Experiment [10] deals with anaplastic large cell lymphoma cells (DELBVR). In words: In vitro potency (CellTiter-Glo, 96 h) on DELBVR. The conditions noted are these: 96 h, read-out: DELBVR IC50. As to the method:
as §1, §2

[11] abbreviates: CPT free drugs, CellTiter-Glo after 96 h exposure.

Like-named read-outs stand apart in the source and are kept apart here.

Regarding `CC[C@@]1(O)C(=O)OCc2c1cc1n(c2=O)Cc2c-1nc1cc3c(cc1c2CNC1CCN(C)CC1)OCO3` [Compound 7w], the half-maximal inhibitory concentration (IC50) in [1] was 15 nM; in experiment [2], 2 nM; in experiment [3], 8 nM; in experiment [4], 26 nM; in experiment [5] it was 6 nM; in experiment [6] it was 6 nM. Besides, the IC50 worked out at 13 nM in [7], 16 nM in experiment [8] (96 h), 26 nM in [9] and 2 nM in [10].

As to `C=C(C)c1c(C)c(F)cc2nc3c(c(CN)c12)Cn1c-3cc2c(c1=O)COC(=O)[C@]2(O)CC` [Compound 2al], the IC50 in experiment [1] turned out to be 4 nM; in [2], 1 nM; in [3], 4 nM; in experiment [4], 2 nM; in experiment [5], 2 nM; in experiment [6], 1 nM. The IC50 in experiment [7] came out at 7 nM; in experiment [8] (96 h), 11 nM; in experiment [9], 9 nM; in experiment [10] it was 1 nM.

Turning to `CC[C@@]1(O)C(=O)OCc2c1cc1n(c2=O)Cc2c-1nc1cc3c(cc1c2CN)COC3` [Compound 2ak], in [4], the 50% inhibitory concentration (IC50) was found to be 129 nM.

As for `CC[C@@]1(O)C(=O)OCc2c1cc1n(c2=O)Cc2c-1nc1cc3c(cc1c2CNCCN1CCNCC1)OCO3` [Compound 8b], the IC50 in experiment [1] came out at 102 nM; in [2], 8 nM; in experiment [3] it was 62 nM; in experiment [4], 91 nM; in experiment [5], 56 nM; in [6] it was 17 nM. Also, the IC50 in [7] was 51 nM; in experiment [8] (96 h) it was 111 nM; in experiment [9] it was 260 nM; in experiment [10], 13 nM.

In the case of `CC[C@@]1(O)C(=O)OCc2c1cc1n(c2=O)Cc2c-1nc1cc(F)c(C)c(/C=C/c3ccc(OC)cc3)c1c2CN` [Compound 2ai], the half-maximal inhibitory concentration (IC50) in experiment [1] (setting [11]) was determined as 64 nM; in experiment [2] (setting [11]), 6 nM; in [3] (setting [11]), 47 nM; in experiment [4] (setting [11]), 34 nM; in experiment [5] (setting [11]) it was 47 nM; in experiment [6] (setting [11]), 13 nM. Also, the half-inhibitory concentration (IC50) in experiment [7] (setting [11]) came to 57 nM; in experiment [8] (setting [11]) it was 64 nM; in [9] (setting [11]), 79 nM; in [10] (setting [11]) it was 5 nM.

As for `CC[C@@]1(O)C(=O)OCc2c1cc1n(c2=O)Cc2c-1nc1cc3c(cc1c2CNC[C@@H](O)CN1CCCCC1)OCO3` [Compound 7z], the IC50 in experiment [1] came to 123 nM; in [2], 17 nM; in experiment [3], 150 nM; in [4], 143 nM; in [5], 48 nM; in experiment [6] it was 39 nM. The half-inhibitory concentration (IC50) in [7] was found to be 127 nM; in experiment [8] (96 h), 79 nM; in experiment [9], 306 nM; in experiment [10], 16 nM.

With `CC[C@@]1(O)C(=O)OCc2c1cc1n(c2=O)Cc2c-1nc1cc3c(cc1c2CNC(=O)CN)CCO3` [Compound 13], the IC50 in [1] worked out at 139 nM; in [2], 8 nM; in experiment [3], 126 nM; in experiment [4] it was 88 nM; in [5] it was 45 nM; in experiment [6], 18 nM. The IC50 in experiment [7] was 94 nM; in experiment [8] (96 h), 195 nM; in [9], 177 nM; in experiment [10] it was 21 nM.

Consider `CC[C@@]1(O)C(=O)OCc2c1cc1n(c2=O)Cc2c-1nc1cc3c(cc1c2CN1CCC(N)CC1)OCO3` [Compound 8f], for which the half-maximal inhibitory concentration (IC50) in experiment [1] turned out to be 267 nM; in experiment [2], 14 nM; in experiment [3], 110 nM; in experiment [4] it was 32 nM; in experiment [5] it was 84 nM; in experiment [6] it was 32 nM. For the same compound, the IC50 in experiment [7] is 166 nM; in [8] (96 h) it was 236 nM; in experiment [9] it was 207 nM; in experiment [10], 30 nM.

In the case of `C=Cc1c(C)c(F)cc2nc3c(c(CN)c12)Cn1c-3cc2c(c1=O)COC(=O)[C@]2(O)CC` [Compound 2am, (S)-11-(aminomethyl)-4-ethyl-8-fluoro-4-hydroxy-9-methyl-10-vinyl-1,12-dihydro-14H-pyrano[3′,4′:6,7]indolizino[1,2-b]quinoline-3,14(4H)-dione], the IC50 in experiment [1] was found to be 2 nM; in experiment [2], 0.3 nM; in experiment [3], 2 nM; in experiment [4] it was 2 nM; in [5] it was 1 nM; in experiment [6] it was 1 nM. Further, the IC50 in [7] turned out to be 4 nM; in experiment [8] (96 h), 5 nM; in [9], 5 nM; in experiment [10] it was 0.3 nM.

`CC[C@@]1(O)C(=O)OCc2c1cc1n(c2=O)Cc2c-1nc1cc3c(cc1c2CNC[C@H](O)CN1CCCCC1)OCO3` [Compound 7aa]: the 50% inhibitory concentration (IC50) is 131 nM in [1]; 17 nM in experiment [2]; 63 nM in experiment [3]; 69 nM in [4]; 51 nM in experiment [5]; 19 nM in experiment [6]. The concentration for half-maximal inhibition (IC50) came out at 66 nM in experiment [7], 188 nM in [8] (96 h), 228 nM in experiment [9] and 19 nM in [10].

On to `CC[C@@]1(O)C(=O)OCc2c1cc1n(c2=O)Cc2c-1nc1cc3c(cc1c2CN(C)CCCN)OCO3` [Compound 8, (5S)-14-[[3-aminopropyl(methyl)amino]methyl]-5-ethyl-5-hydroxy-7,18,20-trioxa-11,24-diazahexacyclo[11.11.0.02,11.04,9.015,23.017,21]tetracosa-1(13),2,4(9),14,16,21,23-heptaene-6,10-dione;2,2,2-trifluoroacetic acid], for which the concentration for half-maximal inhibition (IC50) in [1] (setting [11]) was found to be 113 nM; in experiment [2] (setting [11]) it was 8 nM; in experiment [3] (setting [11]), 54 nM; in [4] (setting [11]), 47 nM; in [5] (setting [11]), 44 nM; in experiment [6] (setting [11]), 15 nM. In addition, the IC50 in experiment [7] (setting [11]) stood at 52 nM; in experiment [8] (setting [11]), 131 nM; in experiment [9] (setting [11]), 125 nM; in experiment [10] (setting [11]) it was 16 nM.

Regarding `CC[C@@]1(O)C(=O)OCc2c1cc1n(c2=O)Cc2c-1nc1cc3c(cc1c2CNC1CCNCC1)OCO3` [Compound 8e], the half-maximal inhibitory concentration (IC50) is 104 nM in [1]; 7 nM in [2]; 72 nM in experiment [3]; 89 nM in experiment [4]; 36 nM in experiment [5]; 25 nM in experiment [6]. Further, the 50% inhibitory concentration (IC50) in [7] turned out to be 62 nM; in [8] (96 h), 109 nM; in experiment [9], 102 nM; in [10] it was 10 nM.

For `CC[C@@]1(O)C(=O)OCc2c1cc1n(c2=O)Cc2c-1nc1cc(Br)c(OC)c(F)c1c2CN` [Compound 2ah], the concentration for half-maximal inhibition (IC50) in experiment [1] (setting [11]) worked out at 108 nM; in [2] (setting [11]) it was 12 nM; in experiment [3] (setting [11]) it was 65 nM; in [4] (setting [11]), 125 nM; in experiment [5] (setting [11]) it was 54 nM; in experiment [6] (setting [11]) it was 29 nM. For the same compound, the IC50 stood at 199 nM in experiment [7] (setting [11]), 152 nM in experiment [8] (setting [11]), 149 nM in [9] (setting [11]) and 11 nM in [10] (setting [11]).

On to `CC[C@@]1(O)C(=O)OCc2c1cc1n(c2=O)Cc2c-1nc1cc3c(cc1c2CNC(C)=O)OCO3` [Compound 12b], for which the IC50 in experiment [1] was found to be 12 nM; in experiment [3], 8 nM; in experiment [4] it was 3 nM; in experiment [5] it was 4 nM; in experiment [6] it was 1 nM; in [7], 11 nM. In addition, the figures for the IC50 in experiment [8] (96 h), in experiment [9] and in experiment [10] were 22 nM, 28 nM and 1 nM, respectively.
